Measured values as given in the NIST ThermoML archive (doi:10.1016/j.tca.2015.02.001).
± gives the expanded uncertainty stated by the source.

Key:
[1] = Molar enthalpy of transition or fusion; conditions: Crystal; DSC
[2] = Crystal; DTA

Molar enthalpy of transition or fusion [1]	Triple point temperature [2]	SMILES
4.61 ± 0.359 kcal/mol	340.15 ± 2 K	CCn1cc[n+](C)c1.[Br-] [1-ethyl-3-methylimidazolium bromide]
3.39 ± 0.335 kcal/mol	359.15 ± 2 K	CCn1cc[n+](C)c1.[Cl-] [1-ethyl-3-methylimidazolium chloride]
4.04 ± 0.311 kcal/mol	347.15 ± 2 K	CCn1cc[n+](C)c1.[I-] [1-ethyl-3-methylimidazolium iodide]
